The values that follow come from US6214615A (The United States of America as represented by the …, priority 1996, dated 2001).

Experiment [1] addresses T1, human dopamine D2 receptor (Homo sapiens, UniProt P14416). The note with it: 0.7 nM ^3 H-raclopride; transfected COS-7 cells.
Experimental: Expression and Transfection. […] COS-7 cells were plated at a density of 1×10^6 cells/10 cm dish.
(§1) Radioligand binding. Cells were scraped 48-72 hours after transfection into 10 ml of PBS/10 cm dish and pelleted at 1000× g. Cells were resuspended in 10 mM Tris, 1 mM EDTA, 5 mM MgCl2 and homogenized with a polytron (Brinkman). A total particulate fraction was prepared by centrifugation at 45,000× g for 15 min. […] Reactions were initiated by addition of 0.4 ml of tissue in binding buffer to 0.1 ml of drugs. […] Reactions were terminated by filtering membranes through Whatman GFC filters using a cell harvester (Brandel). Data were analyzed by nonlinear regression on a VAX II computer using the program DATAPLOT (distributed by the National Technical Information Service).
Experiment [2] concerns the target T1, human dopamine D2 receptor. As to the kind of experiment: Saturation radioligand binding to membranes of transfected COS-7 cells. More on the design: rescreened with the S1 probe alone to identify those most likely to be full length; expressed in transfected cells; host or cells: COS-7 cells (transient, 16A-pCD-PS DNA).
Experimental: COS-7 cells were plated at a density of 1×10^6 cells/10 cm dish. One to two days after plating, cells were transfected with 16A-pCD-PS DNA using a modification of the calcium phosphate precipitation procedure.
as §1

T1 sequence (P14416 1-414 isoform P14416-2): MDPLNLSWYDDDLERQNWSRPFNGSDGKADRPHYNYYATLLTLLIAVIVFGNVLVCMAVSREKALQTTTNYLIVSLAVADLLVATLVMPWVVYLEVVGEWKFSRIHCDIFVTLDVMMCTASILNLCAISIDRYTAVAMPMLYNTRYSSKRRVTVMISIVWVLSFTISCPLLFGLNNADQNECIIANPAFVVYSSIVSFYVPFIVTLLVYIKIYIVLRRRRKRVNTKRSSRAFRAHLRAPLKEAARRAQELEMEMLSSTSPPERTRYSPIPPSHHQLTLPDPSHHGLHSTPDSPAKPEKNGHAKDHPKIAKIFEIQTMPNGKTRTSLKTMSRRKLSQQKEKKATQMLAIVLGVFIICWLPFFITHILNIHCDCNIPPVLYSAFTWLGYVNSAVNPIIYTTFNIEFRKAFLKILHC

`CCN1CCC[C@@H]1CNC(=O)c1cc(S(N)(=O)=O)ccc1OC` [(+)sulphride]: in experiment [1], the “n (hill number)” value is 1.0 ± 0.1.

Turning to `CCN1CCC[C@H]1CNC(=O)c1cc(S(N)(=O)=O)ccc1OC` [(-)sulphride], in experiment [1], the “n (hill number)” value was 1.2 ± 0.2.

Regarding `CCN1CCC[C@H]1CNC(=O)c1c(O)c(Cl)cc(Cl)c1OC` [^3 H-raclopride], the “maximum number of binding sites” value in experiment [2] (COS-7 transfected with 16A-pCD-PS) is given as 800±110 fmole/mg protein.

Take `CN1CCc2cccc3c2[C@H]1Cc1ccc(O)c(O)c1-3` [apomorphine]: in experiment [1], the “n (hill number)” value is on record as 1.0 ± 0.1.

For the molecule `CN(C)CCCN1c2ccccc2Sc2ccc(Cl)cc21` [chlorpromazine], the “n (hill number)” value in experiment [1] worked out at 0.9 ± 0.1.

In the case of `NCCc1ccc(O)c(O)c1` [dopamine], the “n (hill number)” value in experiment [1] was found to be 1.1 ± 0.1.

Consider ^3 H-SCH23396, for which the “displacable binding to transfected COS-7 cells” value in experiment [2] (concentrations up to 5 nM, displaced by chlorpromazine) is given as “did not show significant displacable binding”.
